# According to patent US11229664B2, “Treatment of myelosuppression” (priority 2012, dated 2022):
# “And” between values parts separate entries of the source, which are not always exact repeats. Equal values may be shown once. Read-outs that look alike come from different tables or passages of the source.
# Legend:
# [1] = test system: partial thromboplastin time (aPTT); test: Clinical trial: partial thromboplastin time (aPTT) during ODSH infusion; format: in vivo, human; details: for aPTT: individual patients
# Source text: As a substantially non-anticoagulant heparinoid, ODSH can be administered at a dose that is greater than the fully anticoagulant dose of unfractionated heparin, without concern for anticoagulant effect, as shown in the Results below.
# Lack of anticoagulation by ODSH was confirmed by monitoring partial thromboplastin time (aPTT) during ODSH infusion, at days 1, 3, 10, and 17 of treatment cycle 1. Normal range of aPTT is about 27 to 35 seconds+/−15%.
# [2] = test system: clotting time (aPTT); test: aPTT assay, clotting time after administration to a subject; format: in vivo; details: administered to a subject at a (dose equivalent to a) fully-anticoagulating dose of unfractionated heparin; normal about 27 to 35 seconds
# Source text: In various preferred embodiments, the PF4-interacting heparinoid is substantially nonanticoagulant. Anti-coagulation activity can be determined using assays known in the art, e.g., activated partial thromboplastin time (aPTT), prothrombin time, anti-Xa clotting and amidolytic assays. See, e.g., U.S. Pat. No. 5,668,118, Example IV; Fryer et al., 1997, J. Pharmacol. Exp. Ther. 282: 208-219, at page 209; Rao et al., 2010, Am. J. Physiol. 299:C97-C110, at page C98; United States Pharmacopeial Convention 1995 (for USP anticoagulant assay and amidolytic assay).
# In contrast to unfractionated heparin, ODSH is substantially non-anticoagulating: administered to a subject at a dose that is equivalent to a fully-anticoagulating dose of unfractionated heparin, the clotting time measured in an aPTT assay is no greater than 45 seconds, and typically in the upper range of normal, where normal clotting time ranges from about 27 to 35 seconds. By comparison, unfractionated heparin administered to a subject at a fully anticoagulant dose causes time to clot to range from about 60 to about 85 seconds in an aPTT assay. Another measure of ODSH's anticoagulant activity is its anti-Xa activity which can be determined in an assay carried out using plasma treated with Russell viper venom. […] Whether or not a heparinoid is substantially non-anticoagulating can be determined using any of the above assays.
# [3] = test system: white blood cells; test: Clinical trial, metastatic pancreatic cancer: total white blood cell count; format: in vivo, human; details: individual patients, ODSH adjunctive to gemcitabine and nab-paclitaxel
# Source text: Male and non-pregnant, non-lactating, female patients, aged 18 to 75, with histologically confirmed metastatic adenocarcinoma of the pancreas were enrolled in the trial. […] In addition, patients were screened for blood chemistry levels, including serum creatinine levels within normal limits, serum transaminase levels of […] the upper limit of normal, and bilirubin levels of 1.5 times the upper limit of normal […].
# Treatment consisted of a series of 28-day cycles, wherein the last day of one cycle (e.g., day 28, cycle 1) was immediately followed by the first day of the next cycle (e.g., day 1, cycle 2). In each 28-day treatment cycle, patients were dosed at days 1, 8, and 15 (three weeks of medication followed by one week of rest) as follows. First, nab-paclitaxel at 125 mg/m^2 was administered as an intravenous infusion over 30 minutes. […] Nab-paclitaxel and gemcitabine therapy was given as described in the prescribing information for Abraxane® and Gemzar®. See also, Von Hoff et al., 2011, J. Clinical Oncology 29:1-7). […]
# An initial run-in period was conducted in which ten patients were treated with the gemcitabine, nab-paclitaxel, and ODSH regimen described above. After all ten patients had completed at least one 28-day cycle, the data were reviewed and an open-label randomized study initiated, with two arms (ODSH arm and Control arm). In the ODSH arm, the dosing regimen was the same as in the run-in period (gemcitabine, nab-paclitaxel, and ODSH). In the Control arm, patients were given the same gemcitabine and nab-paclitaxel regimen as in the run-in period, but without ODSH.
# Blood was drawn before treatment administration on days 1, 8, and 15 of each 28 day cycle. Platelet counts, total white blood cell counts, and absolute neutrophil counts were performed. Grading of thrombocytopenia and/or neutropenia was performed according to the following standards: […]
# [4] = for Deaths: N = 10 per group
# Protocol: All experiments were conducted on female athymic nude mice (Hsd:Athymic Nude-Foxn1nu) supplied by Harlan (Indianapolis, Ind.). Mice were received at four weeks of age, 12-15 grams in weight, and were acclimated for seven days prior to handling. The mice were housed in microisolator cages (Lab Products, Seaford, Del.) and maintained under specific pathogen-free conditions. All procedures were carried out under appropriate institutional guidelines for animal care.
# Seven days following inoculation, tumors were measured using calipers and tumor weight was calculated using the animal study management software. […] Body weights were recorded when the mice were randomized and were taken twice weekly thereafter in conjunction with tumor measurements, on each of Days 1, 4, 8, 11, 15, 18, 22, 26, 30, 33, and 36.
# The study was terminated when the vehicle control reached an endpoint of 1500 mg, on Day 36.
# [5] = Table 13, first column group, headed Day 22
# [6] = Table 13, second column group, headed Day 26
# [7] = ten mice per group, BxPC-3 xenograft study
substance,measurement,setting,value
"substantially 2-O, 3-O desulfated heparin [ODSH]",Anticoagulation as determined by partial thromboplastin time (aPTT),[1]; 4 mg/kg bolus + 0.375 mg/kg/hr 48 h,did not result in anticoagulation
same,aPTT,[1]; Cycle 1 Day 1,29 seconds (2×) and 24 seconds and 36 seconds and 33 seconds and 28 seconds and 26 seconds and 25 seconds and 27 seconds
same,aPTT,[1]; Cycle 1 Day 3,28 seconds and 33 seconds (2×) and 43 seconds and 38 seconds and 31 seconds (3×) and 34 seconds
same,aPTT,[1]; Cycle 1 Day 10,34 seconds (2×) and 32 seconds and 38 seconds and 35 seconds and 31 seconds (2×) and 33 seconds and 36 seconds
same,aPTT,[1]; Cycle 1 Day 17,34 seconds and 28 seconds and 30 seconds (2×) and 42 seconds and 36 seconds and 33 seconds and 29 seconds
same,Clotting time in aPTT assay,[2],≤ 45 s
same,White Blood Cell Counts,[3]; Cycle 1 Day 1,6.8 ×10^3/μl blood and 7.7 ×10^3/μl blood and 7.3 ×10^3/μl blood and 5.0 ×10^3/μl blood and 4.6 ×10^3/μl blood and 6.5 ×10^3/μl blood and 5.7 ×10^3/μl blood and 8.7 ×10^3/μl blood and 6.0 ×10^3/μl blood and 7.2 ×10^3/μl blood
same,White Blood Cell Counts,[3]; Cycle 1 Day 8,4.4 ×10^3/μl blood and 6.2 ×10^3/μl blood and 2.7 ×10^3/μl blood and 5.3 ×10^3/μl blood and 2.8 ×10^3/μl blood and 5.1 ×10^3/μl blood and 2.3 ×10^3/μl blood and 5.7 ×10^3/μl blood and 3.4 ×10^3/μl blood and 4.1 ×10^3/μl blood
same,White Blood Cell Counts,[3]; Cycle 1 Day 15,4.2 ×10^3/μl blood and 5.1 ×10^3/μl blood and 2.1 ×10^3/μl blood and 6.0 ×10^3/μl blood and 2.0 ×10^3/μl blood and 3.2 ×10^3/μl blood and 2.7 ×10^3/μl blood (2×) and 5.4 ×10^3/μl blood and 1.5 ×10^3/μl blood
same,White Blood Cell Counts,[3]; Cycle 2 Day 1,4.9 ×10^3/μl blood and 7.8 ×10^3/μl blood and 17.8 ×10^3/μl blood and 5.9 ×10^3/μl blood and 6.5 ×10^3/μl blood and 5.7 ×10^3/μl blood and 11.0 ×10^3/μl blood and 3.4 ×10^3/μl blood and 10.8 ×10^3/μl blood
same,White Blood Cell Counts,[3]; Cycle 2 Day 8,10.2 ×10^3/μl blood and 4.5 ×10^3/μl blood and 4.6 ×10^3/μl blood and 2.9 ×10^3/μl blood and 6.4 ×10^3/μl blood
same,White Blood Cell Counts,[3]; Cycle 2 Day 15,3.4 ×10^3/μl blood and 4.3 ×10^3/μl blood and 5.4 ×10^3/μl blood and 2.4 ×10^3/μl blood and 4.4 ×10^3/μl blood
same,White Blood Cell Counts,[3]; Cycle 3 Day 1,6.0 ×10^3/μl blood and 7.6 ×10^3/μl blood and 4.8 ×10^3/μl blood and 5.8 ×10^3/μl blood
same,White Blood Cell Counts,[3]; Cycle 3 Day 8,4.8 ×10^3/μl blood and 2.7 ×10^3/μl blood
same,White Blood Cell Counts,[3]; Cycle 3 Day 15,4.3 ×10^3/μl blood
same,White Blood Cell Counts,[3]; Cycle 4 Day 1,8.5 ×10^3/μl blood
same,White Blood Cell Counts,[3]; Cycle 4 Day 8,6.0 ×10^3/μl blood
same,White Blood Cell Counts,[3]; Screen,8.5 ×10^3/μl blood and 6.7 ×10^3/μl blood (2×) and 6.3 ×10^3/μl blood and 6.5 ×10^3/μl blood and 10.8 ×10^3/μl blood and 10.6 ×10^3/μl blood and 6.0 ×10^3/μl blood and 7.3 ×10^3/μl blood
same,Day by which the mice recovered their weight,[4]; BxPC-3 xenograft study,≤ 22 days
same,Day on which maximum weight loss was reached,[4]; BxPC-3 xenograft study,11 days
same,Tolerability / toxicity of the treatment regimen (in words),"[4]; BxPC-3 xenograft study, doses of Table 1",well-tolerated
same,Average Weight,[4]; Day 1,21.54 g
same,% Weight Loss or Gain,[4]; Day 4,−1.67%
same,Average Weight,[4]; Day 4,21.18 g
same,% Weight Loss or Gain,[4]; Day 8,−1.67%
same,Average Weight,[4]; Day 8,21.18 g
same,% Weight Loss or Gain,[4]; Day 11,−2.74%
same,Average Weight,[4]; Day 11,20.95 g
same,% Weight Loss or Gain,[4]; Day 15,−2.14%
same,Average Weight,[4]; Day 15,21.08 g
same,% Weight Loss or Gain,[4]; Day 18,−2.32%
same,Average Weight,[4]; Day 18,21.04 g
same,% Weight Loss or Gain,[4]; Day 22 (Table 12),0.09%
same,Average Weight,[4]; Day 22 (Table 12),21.56 g
same,% Weight Loss or Gain,[4]; Day 26 (Table 12),2.79%
same,Average Weight,[4]; Day 26 (Table 12),22.14 g
same,% Weight Loss or Gain,[4]; [5],4.60%
same,Average Weight,[4]; [5],22.53 g
same,% Weight Loss or Gain,[4]; [6],4.27%
same,Average Weight,[4]; [6],22.46 g
same,Deaths,[4]; Total deaths on or before Day 26,0
same,Deaths,[4]; Total deaths on or before Day 36,0
same,Maximum weight loss,"[4]; body weight of mice, BxPC-3 xenograft study",2.7%
same,Starting Weight,"[4]; group mean body weight at start, dose, schedule and route per group as in table",21.54 g
same,% Weight Loss or Gain,"[4]; mouse, in vivo",4.92%
same,Average Weight,"[4]; mouse, in vivo",22.60 g
same,Mice with bruising on the tails or abdomen (site of injection),[4]; [7],All ten
same,Mice with swelling of the tail,[4]; [7],One of the ten
